In the OPERA property sets (Mansouri et al. 2018):

logP | SMILES
4.45 | O=C(Nc1ccc2nn(C3CCCCC3)nc2c1)c1ccccc1
4.57 | O=C(Nc1ccc2nn(C3CCCCC3)nc2c1)c1ccc([N+](=O)[O-])cc1
4.45 | COc1cc(C(=O)Nc2ccc3nn(C4CCCCC4)nc3c2)cc(OC)c1OC
4.03 | COc1ccc(C(=O)Nc2ccc3nn(C4CCCC4)nc3c2)cc1
5.85 | O=C(Nc1ccc2nn(C3CCCCC3)nc2c1)c1ccc(Cl)c(Cl)c1
3.87 | O=C(Nc1ccc2nn(C3CCCCC3)nc2c1)C(Cl)Cl

The remaining lines, values behind:

SMILES | logP
Cn1nc2ccc(NC(=O)c3ccc([N+](=O)[O-])cc3)cc2n1 | 2.53
Cn1nc2ccc(NC(=O)c3ccc(Cl)cc3)cc2n1 | 3.13
Cn1nc2ccc(NC(=O)c3ccccc3)cc2n1 | 2.44
COc1cc(C(=O)Nc2ccc3nn(C)nc3c2)cc(OC)c1OC | 2.38
Cn1nc2ccc(NC(=O)CCl)cc2n1 | 1.22
